Test system: Vasopressin V2
Assay: Vasopressin V2 agonist effects of test compounds in normal conscious water-loaded rats
Assay type: in vivo
Details: Sprague-Dawley (CD) rats, oral 10 mg/kg, urine collected for four hours; for Osmolality (% Increase): change in osmolality as percent of control; for Urine Volume (% decrease): vs. control
Experimental: Vasopressin V2 Agonist Effects of Test Compounds in Normal Conscious Water-Loaded Rats:
On the day of test, rats were placed individually into metabolic cages equipped with devices to separate the feces from the urine and containers for collection of urine. Test compound or reference agent was given at an oral dose of 10 mg/kg in a volume of 10 ml /kg. […] Thirty minutes after dosing the test compound, rats were gavaged with water at 30 ml /kg into the stomach using a feeding needle. During the test, rats were not provided with water or food. Urine was collected for four hours after dosing of the test compound. At the end of four hours, urine volume was measured. […] Determinations of Na^+, K^+ and Cl^- ion were carried out using ion specific electrodes in a Beckman SYNCHRON EL-ISE Electrolyte System analyzer. […] In the screening test, two rats were used for each compound. If the difference in the urine volume of the two rats was greater than 50%, a third rat was used.

Compound: Cc1cnn(-c2ccc(C(=O)N3Cc4cccn4Cc4ccccc43)c(C(F)(F)F)c2)c1 [Example 3, [4-(4-Methyl-pyrazol-1-yl)-2-trifluoromethyl-phenyl]-(5H,11H-pyrrolo[2,1-c][1,4]benzodiazepin-10-yl)-methanone]
- Osmolality (% Increase): 240%
- Urine Volume (% decrease): 58%

Compound: Cc1cnn(-c2ccc(C(=O)N3Cc4cccn4Cc4ccccc43)c(Cl)n2)c1 [Example 101, [2-Chloro-6-(4-methylpyrazol-1-yl)-pyridin-3-yl](5H,11H-pyrrolo[2,1-c] [1,4]benzodiazepin-10-yl)-methanone]
- Osmolality (% Increase): 376%
- Urine Volume (% decrease): 76%

Compound: N#Cc1ccc(C(=O)N2Cc3cccn3Cc3ccccc32)c(Cl)c1 [Example 77, 3-Chloro-4-(5H,11H-pyrrolo[2,1-c][1,4]benzodiazepine-10-carbonyl)-benzonitrile]
- Osmolality (% Increase): 90%
- Urine Volume (% decrease): 13%

Compound: COCn1ccc(-c2ccc(C(=O)N3Cc4cccn4Cc4ccccc43)cc2)n1 [Example 29, [4-(1-methoxymethyl-1H-pyrazol-3-yl)-phenyl]-(5H,11H-pyrrolo[2,1-c][1,4]-benzodiazepin-10-yl)-methanone]
- Osmolality (% Increase): 305%
- Urine Volume (% decrease): 66%

Compound: Cc1ccn(-c2ccc(C(=O)N3Cc4ccc(C)n4Cc4ccccc43)c(Cl)c2)n1 [Example 18, [2-Chloro-4-(3-methylpyrazol-1-yl)-phenyl]-(3-methyl-5H,11H-pyrrolo[2,1-c][1,4]benzodiazepin-10-yl)-methanone]
- Osmolality (% Increase): 214%
- Urine Volume (% decrease): 52%

Compound: Cc1ccn(-c2ccc(C(=O)N3Cc4cccn4Cc4ccccc43)c(F)c2)n1 [Example 92, [2-Fluoro-4-(3-methyl-pyrazol-1-yl)-phenyl]-(5H,11H-pyrrolo[2,1-c][1,4]-benzodiazepin-10-yl)-methanone]
- Osmolality (% Increase): 454%
- Urine Volume (% decrease): 69%

Compound: O=C(c1ccc(-n2cncn2)cc1Cl)N1Cc2cccn2Cc2ccccc21 [Example 14, [2-Chloro-4-(1,2,4-triazol-1-yl)-phenyl]-(5H,11H-pyrrolo[2,1-c][1,4]benzodiazepin-10-yl)-methanone]
- Osmolality (% Increase): 406%
- Urine Volume (% decrease): 86%

Compound: Cc1ccn(-c2ccc(C(=O)N3Cc4ccnn4Cc4ccccc43)c(C(F)(F)F)c2)n1 [Example 95, [4-(3-Methylpyrazol-1-yl)-2-trifluoromethylphenyl]-[5H,11H-pyrazolo[5,1-c]-[1,4]benzodiazepin-10-yl)-methanone]
- Osmolality (% Increase): 300%
- Urine Volume (% decrease): 68%

Compound: Cn1ccc(-c2ccc(C(=O)N3Cc4cccn4Cc4ccccc43)c(Cl)c2)n1 [Example 71, [2-Chloro-4-(1-methyl-1H-pyrazol-3-yl)-phenyl]-(5H,11H-pyrrolo[2,1-c]-[1,4]benzodiazepine-10-yl)-methanone]
- Osmolality (% Increase): 264%
- Urine Volume (% decrease): 84%

Compound: O=C(c1ccc(-n2cccn2)cc1)N1Cc2cccn2Cc2ccccc21 [Example 58, [4-(Pyrazol-1-yl)-phenyl]-(5H,11H-pyrrolo[2,1-c][1,4]benzodiazepin-10-yl)-methanone]
- Osmolality (% Increase): 324%
- Urine Volume (% decrease): 49%

Compound: Cn1ncnc1-c1ccc(C(=O)N2Cc3cccn3Cc3ccccc32)c(Cl)c1 [Example 84, [2-Chloro-4-(2-methyl-2H-[1,2,4]triazol-3-yl)-phenyl]-(5H,11H-pyrrolo [2,1-c][1,4]benzodiazepin-10-carbonyl)-methanone]
- Osmolality (% Increase): 291%
- Urine Volume (% decrease): 56%

Compound: O=C(c1ccc(-n2ccc(C(F)(F)F)n2)cc1)N1Cc2cccn2Cc2ccccc21 [Example 62, (5H,11H-Pyrrolo[2,1-c][1,4]benzodiazepin-10-yl)-[4-(3-trifluoromethyl-pyrazol-1-yl)-phenyl]-methanone]
- Osmolality (% Increase): 150%
- Urine Volume (% decrease): 22%

Compound: O=C(c1ccc(-c2ncn[nH]2)cc1Cl)N1Cc2cccn2Cc2ccccc21 [Example 83, [2-Chloro-4-(2H-1,2,4-triazol-3-yl)-phenyl]-(5H,11H-pyrrolo[2,1-c][1,4]-benzodiazepin-10-yl)-methanone]
- Osmolality (% Increase): 442%
- Urine Volume (% decrease): 85%

Compound: O=C(c1ccc(-n2ccnc2)cc1)N1Cc2cccn2Cc2ccccc21 [Example 63, [4-(Imidazol-1-yl)-phenyl]-(5H,11H-pyrrolo[2,1-c][1,4]benzodiazepin-10-yl)-methanone]
- Osmolality (% Increase): 214%
- Urine Volume (% decrease): 27%

Compound: Cc1ccn(-c2ccc(C(=O)N3Cc4cccn4Cc4ccccc43)c(Br)c2)n1 [Example 90]
- Osmolality (% Increase): 413%
- Urine Volume (% decrease): 61%

Compound: O=C(c1ccc(-n2cncn2)cc1C(F)(F)F)N1Cc2cccn2Cc2ccccc21 [Example 7, (5H,11H-Pyrrolo[2,1-c][1,4]benzodiazepin-10-yl)-(4-[1,2,4]triazol-1-yl-2-trifluoromethylphenyl)-methanone]
- Osmolality (% Increase): 137%
- Urine Volume (% decrease): 13%

Compound: Cn1ccc(-c2ccc(C(=O)N3Cc4cccn4Cc4ccccc43)cc2)n1 [Example 25, [4-(1-Methyl-1H-pyrazolyl-3-yl)-phenyl]-(5H,11H-pyrrolo[2,1-c][1,4]-benzodiazepin-10-yl)-methanone]
- Osmolality (% Increase): 979%
- Urine Volume (% decrease): 87%

Compound: CCCn1ccc(-c2ccc(C(=O)N3Cc4cccn4Cc4ccccc43)cc2)n1 [Example 27, [4-(1-Propyl-1H-pyrazol-3-yl)-phenyl]-(5H,11H-pyrrolo[2,1-c][1,4]-benzodiazepin-10-yl)-methanone]
- Osmolality (% Increase): 183%
- Urine Volume (% decrease): 76%

Compound: Cc1ccn(-c2ccc(C(=O)N3Cc4cccn4Cc4ccccc43)c(Cl)n2)n1 [Example 100, [2-Chloro-6-(3-methylpyrazol-1-yl)-pyridin-3-yl]-(5H,11H-pyrrolo[2,1-c] [1,4]benzodiazepin-10-yl)-methanone]
- Osmolality (% Increase): 248%
- Urine Volume (% decrease): 24%

Compound: O=C(c1ccc(-n2cccc2)cc1Cl)N1Cc2cccn2Cc2ccccc21 [Example 15, (2-Chloro-4-pyrrol-1-yl-phenyl)-(5H,11H-pyrrolo[2,1-c][1,4]benzodiazepin-10-yl)-methanone]
- Osmolality (% Increase): 38%
- Urine Volume (% decrease): 47%

Compound: CCn1ccc(-c2ccc(C(=O)N3Cc4cccn4Cc4ccccc43)cc2)n1 [Example 26, [4-(1-Ethyl-1H-pyrazol-3-yl)-phenyl]-(5H,11H-pyrrolo[2,1-c][1,4]-benzodiazepin-10-yl)-methanone]
- Osmolality (% Increase): 279%
- Urine Volume (% decrease): 54%

Compound: NC(=O)c1ccc(C(=O)N2Cc3cccn3Cc3ccccc32)c(Cl)c1 [Example 79, 3-Chloro-4-(5H,11H-pyrrolo[2,1-c][1,4]benzodiazepine-10-carbonyl)-benzamide]
- Osmolality (% Increase): 123%
- Urine Volume (% decrease): 38%

Compound: O=C(c1ccc(-c2ccn(C(=O)Cc3ccc(Cl)cc3Cl)n2)cc1)N1Cc2cccn2Cc2ccccc21 [Example 39, 2-(2,4-Dichloro-phenyl)-1-{3-[4-(5H,11H-pyrrolo[2,1-c][1,4]benzodiazepine-10-carbonyl)-phenyl]-pyrazol-1-yl}-ethanone]
- Osmolality (% Increase): 253%
- Urine Volume (% decrease): 69%

Compound: Cn1nccc1-c1ccc(C(=O)N2Cc3ccnn3Cc3ccccc32)cc1 [Example 120B, [4-(2-Methyl-1H-pyrazol-3-yl)phenyl](4H,10H-pyrazolo[5,1c][1,4]-benzodiazepin-5-yl) methanone]
- Osmolality (% Increase): 272%
- Urine Volume (% decrease): 67%

Compound: Cc1ccnn1-c1ccc(C(=O)N2Cc3cccn3Cc3ccccc32)c(Cl)c1 [Example 9B]
- Osmolality (% Increase): 168%
- Urine Volume (% decrease): 21%

Compound: Cc1ccn(-c2ccc(C(=O)N3Cc4cccn4Cc4ccccc43)c(O)c2)n1 [Example 109]
- Osmolality (% Increase): 95%
- Urine Volume (% decrease): 21%

Compound: Cc1cc(C)n(-c2ccc(C(=O)N3Cc4cccn4Cc4ccccc43)cc2)n1 [Example 61, [4-(3,5-Dimethyl-pyrazol-1-yl)-phenyl]-(5H,11H-pyrrolo[2,1-c][1,4]-benzodiazepin-10-yl)-methanone]
- Osmolality (% Increase): 245%
- Urine Volume (% decrease): 59%

Compound: Cc1ccn(-c2ccc(C(=O)N3Cc4cccn4Cc4ccccc43)cc2)n1 [Example 59, [4-(3-Methyl-pyrazol-1-yl)-phenyl]-(5H,11H-pyrrolo[2,1-c][1,4]-benzodiazepin-10-yl)-methanone]
- Osmolality (% Increase): 607%
- Urine Volume (% decrease): 80%

Compound: [2-Chloro-4-(3-methyl-4-ethynyl-phenyl) (5H,11H-pyrrolo[2,1-c][1,4]-benzodiazepin-10-yl)-methanone [Example 123]
- Osmolality (% Increase): 663%
- Urine Volume (% decrease): 88%

Compound: O=C(c1ccc(-c2cc[nH]n2)cc1)N1Cc2cccn2Cc2ccccc21 [Example 24, [4-(1H-Pyrazol-3-yl)-phenyl]-(5H,11H-pyrrolo[2,1-c][1,4]benzodiazepin-10-yl)-methanone]
- Osmolality (% Increase): 159%
- Urine Volume (% decrease): 47%

Compound: Cc1cn(-c2ccc(C(=O)N3Cc4cccn4Cc4ccccc43)cc2)cn1 [Example 64, [4-(4-Methyl-imidazol-1-yl)-phenyl]-(5H,11H-pyrrolo[2,1-c][1,4]-benzodiazepin-10-yl)-methanone]
- Osmolality (% Increase): 349%
- Urine Volume (% decrease): 79%

Compound: Cn1cc(-c2ccc(C(=O)N3Cc4cccn4Cc4ccccc43)c(Cl)c2)cn1 [Example 115, [2-Chloro-4-(1-methyl-1H-pyrazol-4-yl)phenyl) (5H,11H-pyrrolo[2,1-c][1,4]-benzodiazepin-10-yl)-methanone]
- Osmolality (% Increase): 229%
- Urine Volume (% decrease): 66%

Source: patent publication EP1000062B1, “TRICYCLIC VASOPRESSIN AGONISTS” (Wyeth, priority 1997, dated 1999)
